The values below come from patent US6620819B2, “Anticonvulsant derivatives useful in treating psychosis” (Ortho-McNeil Pharmaceutical, Inc., priority 1999, dated 2003).

For one assay, the system named is patients with dementia. Briefly: retrospective chart review of open label add-on topiramate, dementia patients. The format is in vivo, human. As to conditions: all three dementia inpatients; daily mean dose 210 mg, duration 11.7 weeks; added to existing pharmacotherapy, several on risperidone. How it is done: (§1) A retrospective analysis of patients treated in an open label manner with topiramate for dementia and/or behavioral and psychotic disturbances in dementia was performed.
(§2) The charts of 58 consecutive patients with diagnosed psychiatric disorders refractory to conventional mood stabilizers who were treated with topiramate were selected for retrospective review. Topiramate 25 mg BID was added to existing pharmacotherapy on an open label basis. It was titrated upward in 50 mg (25 mg bid) increments every seven days until improvement occurred or a total dosage of 400 mg per day was reached. Charts were retrospectively reviewed for the following data: demographic information, psychiatric diagnosis and duration of illness, general medical history, daily dose of topiramate and regimen, duration of topiramate therapy, reason for discontinuation of topiramate therapy, previous therapy, concurrent medications, adverse events and evaluation of response to topiramate.
(§3) Results were analyzed using descriptive statistics. When possible, results are expressed as means with standard deviation (SD). […] Improvement was investigator rated and included a qualitative assessment of changes in sleep, appetite, mood and concentration during therapy. Adverse events reported by the patients were recorded during therapy and assessed for their relationship to study therapy. […]

Assay [1] relates to seizures in several rodent models of epilepsy. Particulars: cited from earlier work.
Assay [2] concerns simple and complex partial seizures and secondarily generalized seizures. As to conditions: adjunctive therapy or monotherapy, clinical trials; cited from earlier work.
Assay [3] has as its system patients with psychosis, not otherwise specified. Description: retrospective chart review of open label add-on topiramate, psychosis patients. The format is in vivo, human. Particulars: both psychosis inpatients; daily mean dose 260 mg, duration 10.7 weeks; added to existing pharmacotherapy, several on risperidone. How it is done:
as §1, §2, §3

The next assay concerns kindled epilepsy. As to conditions: animal model of kindled epilepsy; cited from earlier work.
Assay [4] deals with behavioral agitation in dementia. Particulars: some patients with dementia; cited from earlier work.

`CC1(C)O[C@@H]2[C@@H](CO[C@@]3(COS(N)(=O)=O)OC(C)(C)O[C@@H]23)O1` [topiramate, 2,3:4,5-bis-O-(1-methylethylidene)-β-D-fructopyranose sulfamate]: the “investigator rated response (Likert scale worse / no change / minimally improved / markedly improved)” value (in the assay with patients with dementia; in assay [3]) was “marked or moderate improvement” each time. For the same compound, the block of seizures entry (in assay [1]; in the assay on kindled epilepsy) was “effectively block seizures” throughout. Further, in assay [2], the “efficacy in treating simple and complex partial seizures and secondarily generalized seizures” value is “effective”.
Take `NC(=O)N1c2ccccc2C=Cc2ccccc21` [carbamazepine]: the “control of behavioral agitation” value in assay [4] is on record as “efficacious”.
For `CCCC(CCC)C(=O)O` [divalproex sodium], in assay [4], the “control of behavioral agitation” value was “efficacious”.
